Experiments:
[1] = target: STE20-like serine/threonine-protein kinase (Homo sapiens, UniProt Q9H2G2); experiment: Selectivity interaction (Ambit KINOMEscan and KiNATiv profiling in Jurkat cells) EUB0000090b SLK; assay type: cell-based; settings: at 1 µM
[2] = target: T1, Phosphatidylinositol 5-phosphate 4-kinase type-2 gamma (Homo sapiens) (UniProt Q8TBX8); experiment: Selectivity interaction (ActivX KiNativ screen (kinase selectivity in THP-1 cell lysates)) EUB0000639a PIP4K2C; assay type: subcellular; settings: lysate, at 0.01 µM
T1 sequence (whole entry): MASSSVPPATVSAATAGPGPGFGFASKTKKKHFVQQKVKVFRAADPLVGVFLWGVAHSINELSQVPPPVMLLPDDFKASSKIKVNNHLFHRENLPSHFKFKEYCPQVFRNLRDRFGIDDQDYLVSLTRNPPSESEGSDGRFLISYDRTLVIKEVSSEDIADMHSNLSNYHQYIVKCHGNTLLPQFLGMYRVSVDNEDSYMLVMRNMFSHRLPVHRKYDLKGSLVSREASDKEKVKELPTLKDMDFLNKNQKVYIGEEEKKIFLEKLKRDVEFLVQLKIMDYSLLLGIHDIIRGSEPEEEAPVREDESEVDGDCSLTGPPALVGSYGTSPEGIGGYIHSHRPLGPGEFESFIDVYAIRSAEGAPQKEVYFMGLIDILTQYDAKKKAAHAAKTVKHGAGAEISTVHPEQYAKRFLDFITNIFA

[3] = target: Poly [ADP-ribose] polymerase 1 (Homo sapiens, UniProt P09874); experiment: Selectivity interaction (Enzymatic assay (Reaction Biology)) EUB0001632a PARP1
[4] = tested on: Mast/stem cell growth factor receptor Kit (Homo sapiens), P10721 [A829P]; experiment: (§1) Selectivity interaction (KinomeScan (DiscoverX)) EUB0000229b KIT; settings: at 1 µM
[5] = tested on: Mast/stem cell growth factor receptor Kit (Homo sapiens), P10721 [D816H]; experiment: as §1; settings: at 1 µM
Chain of Mast/stem cell growth factor receptor Kit (Homo sapiens), P10721 [D816H] (P10721 whole entry D816H): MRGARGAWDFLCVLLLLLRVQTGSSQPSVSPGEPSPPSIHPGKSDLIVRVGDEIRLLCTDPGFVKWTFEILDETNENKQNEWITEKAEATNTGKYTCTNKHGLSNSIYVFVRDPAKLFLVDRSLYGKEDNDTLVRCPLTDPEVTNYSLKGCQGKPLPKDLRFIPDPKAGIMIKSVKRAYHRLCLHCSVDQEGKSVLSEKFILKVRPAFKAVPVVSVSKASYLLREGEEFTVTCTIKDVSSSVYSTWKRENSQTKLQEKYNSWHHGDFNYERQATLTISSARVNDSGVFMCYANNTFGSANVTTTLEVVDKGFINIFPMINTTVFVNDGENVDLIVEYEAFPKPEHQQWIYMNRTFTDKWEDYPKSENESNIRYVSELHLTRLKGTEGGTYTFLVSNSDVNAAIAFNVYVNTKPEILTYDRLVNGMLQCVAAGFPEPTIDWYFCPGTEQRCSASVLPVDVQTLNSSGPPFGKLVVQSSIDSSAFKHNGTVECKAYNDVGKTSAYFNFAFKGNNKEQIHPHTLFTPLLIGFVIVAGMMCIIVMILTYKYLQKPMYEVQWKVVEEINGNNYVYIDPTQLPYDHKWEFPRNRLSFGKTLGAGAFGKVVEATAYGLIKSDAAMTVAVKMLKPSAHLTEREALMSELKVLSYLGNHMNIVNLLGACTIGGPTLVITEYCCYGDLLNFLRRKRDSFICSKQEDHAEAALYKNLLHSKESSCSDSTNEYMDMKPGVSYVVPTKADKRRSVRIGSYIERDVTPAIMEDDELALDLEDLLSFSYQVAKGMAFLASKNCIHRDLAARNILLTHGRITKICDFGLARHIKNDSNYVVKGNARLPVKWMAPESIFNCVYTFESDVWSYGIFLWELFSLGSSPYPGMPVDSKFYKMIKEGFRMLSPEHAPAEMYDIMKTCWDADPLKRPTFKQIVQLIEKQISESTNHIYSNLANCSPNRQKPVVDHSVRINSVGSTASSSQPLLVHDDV

[6] = tested on: Mast/stem cell growth factor receptor Kit (Homo sapiens), P10721 [D816V]; experiment: as §1; settings: at 1 µM
Chain of Mast/stem cell growth factor receptor Kit (Homo sapiens), P10721 [D816V] (P10721 whole entry D816V): as the sequence (P10721 whole entry D816H) above, with H816V counted along it

[7] = tested on: Mast/stem cell growth factor receptor Kit (Homo sapiens), P10721 [L576P]; experiment: as §1; settings: at 1 µM
[8] = tested on: Mast/stem cell growth factor receptor Kit (Homo sapiens), P10721 [V559D,T670I]; experiment: as §1; settings: at 1 µM
[9] = tested on: Mast/stem cell growth factor receptor Kit (Homo sapiens), P10721 [V559D,V654A]; experiment: as §1; settings: at 1 µM
[10] = tested on: Mast/stem cell growth factor receptor Kit (Homo sapiens), P10721 [V559D]; experiment: as §1; settings: at 1 µM
[11] = target: Mast/stem cell growth factor receptor Kit (Homo sapiens, UniProt P10721); experiment: as §1; settings: at 10 µM
Chain of Mast/stem cell growth factor receptor Kit (P10721 whole entry): as the sequence (P10721 whole entry D816H) above, with H816D counted along it

[12] = target: Ribosomal protein S6 kinase alpha-2 (Homo sapiens) (UniProt Q15349); experiment: Selectivity interaction (KinomeScan (DiscoverX)) EUB0001079a RPS6KA2; settings: at 1 µM
Chain of Ribosomal protein S6 kinase alpha-2 (Homo sapiens) (Q15349 whole entry): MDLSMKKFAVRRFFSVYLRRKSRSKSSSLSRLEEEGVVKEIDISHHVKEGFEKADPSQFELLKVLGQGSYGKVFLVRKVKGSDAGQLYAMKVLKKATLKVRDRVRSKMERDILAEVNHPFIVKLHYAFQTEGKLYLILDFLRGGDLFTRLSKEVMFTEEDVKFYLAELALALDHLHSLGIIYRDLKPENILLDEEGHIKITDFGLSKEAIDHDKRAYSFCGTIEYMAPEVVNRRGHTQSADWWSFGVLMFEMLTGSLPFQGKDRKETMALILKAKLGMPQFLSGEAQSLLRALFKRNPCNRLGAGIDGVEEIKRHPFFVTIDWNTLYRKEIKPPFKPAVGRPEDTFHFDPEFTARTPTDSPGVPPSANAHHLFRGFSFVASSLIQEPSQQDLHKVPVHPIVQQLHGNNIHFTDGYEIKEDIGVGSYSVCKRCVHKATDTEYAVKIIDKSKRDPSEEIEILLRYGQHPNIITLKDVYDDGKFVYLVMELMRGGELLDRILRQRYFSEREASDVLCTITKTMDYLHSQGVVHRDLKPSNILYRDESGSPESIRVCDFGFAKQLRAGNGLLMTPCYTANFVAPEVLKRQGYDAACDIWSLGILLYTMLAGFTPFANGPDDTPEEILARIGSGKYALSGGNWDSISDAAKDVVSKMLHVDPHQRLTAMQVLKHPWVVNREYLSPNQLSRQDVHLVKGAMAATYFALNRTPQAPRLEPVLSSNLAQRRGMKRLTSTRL

[13] = tested on: Tyrosine-protein kinase ABL1 (Homo sapiens), P00519 [E255K]; experiment: (§2) Selectivity interaction (KinomeScan (DiscoverX)) EUB0000655a ABL1; settings: at 10 µM
[14] = tested on: Tyrosine-protein kinase ABL1 (Homo sapiens), P00519 [F317I]; experiment: as §2; settings: at 10 µM
[15] = tested on: Tyrosine-protein kinase ABL1 (Homo sapiens), P00519 [F317L]; experiment: as §2; settings: at 10 µM
[16] = tested on: Tyrosine-protein kinase ABL1 (Homo sapiens), P00519 [H396P]; experiment: as §2; settings: at 10 µM
[17] = tested on: Tyrosine-protein kinase ABL1 (Homo sapiens), P00519 [M351T]; experiment: as §2; settings: at 10 µM
[18] = tested on: Tyrosine-protein kinase ABL1 (Homo sapiens), P00519 [Q252H]; experiment: as §2; settings: at 10 µM
[19] = tested on: Tyrosine-protein kinase ABL1 (Homo sapiens), P00519 [T315I]; experiment: as §2; settings: at 10 µM
[20] = tested on: Tyrosine-protein kinase ABL1 (Homo sapiens), P00519 [Y253F]; experiment: as §2; settings: at 10 µM
[21] = target: Tyrosine-protein kinase ABL1 (Homo sapiens, UniProt P00519); experiment: as §2; settings: at 10 µM
[22] = target: Dual specificity tyrosine-phosphorylation-regulated kinase 1B (Homo sapiens, UniProt Q9Y463); experiment: Selectivity interaction (KinomeScan (DiscoverX)) EUB0000655a DYRK1B; settings: at 10 µM
[23] = target: Activin receptor type-1-like (Homo sapiens) (UniProt P37023); experiment: Selectivity interaction (KinomeScan (DiscoverX)) EUB0000618a ACVRL1; settings: at 10 µM
[24] = target: RAC-beta serine/threonine-protein kinase (Homo sapiens) (UniProt P31751); experiment: Selectivity interaction (KinomeScan (DiscoverX)) EUB0000607a AKT2; settings: at 10 µM
[25] = target: RAC-gamma serine/threonine-protein kinase (Homo sapiens, UniProt Q9Y243); experiment: Selectivity interaction (SelectScreen profiling (Invitrogen)) EUB0000607a AKT3; settings: at 2 µM
[26] = target: DNA (cytosine-5)-methyltransferase 3B (Homo sapiens) (UniProt Q9UBC3); experiment: Selectivity interaction (Methyltransferase screen (Scintillation proximity assays)) EUB0000255b DNMT3B
[27] = target: Mitogen-activated protein kinase 10 (Homo sapiens, UniProt P53779); experiment: Selectivity interaction (KinomeScan (DiscoverX)) EUB0000666a MAPK10; settings: at 10 µM
Chain of Mitogen-activated protein kinase 10 (P53779 whole entry): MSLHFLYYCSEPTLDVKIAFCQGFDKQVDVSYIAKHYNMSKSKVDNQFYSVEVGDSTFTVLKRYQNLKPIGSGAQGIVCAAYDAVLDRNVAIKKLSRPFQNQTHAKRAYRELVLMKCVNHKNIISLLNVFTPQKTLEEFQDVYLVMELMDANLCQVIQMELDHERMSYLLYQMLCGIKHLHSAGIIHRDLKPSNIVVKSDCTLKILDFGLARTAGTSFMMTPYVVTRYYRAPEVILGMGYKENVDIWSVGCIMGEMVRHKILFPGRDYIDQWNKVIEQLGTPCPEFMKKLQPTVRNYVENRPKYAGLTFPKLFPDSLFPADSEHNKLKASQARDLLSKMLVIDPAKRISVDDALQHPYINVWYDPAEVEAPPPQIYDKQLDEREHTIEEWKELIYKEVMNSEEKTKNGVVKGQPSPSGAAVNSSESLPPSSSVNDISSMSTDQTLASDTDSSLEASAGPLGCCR

[28] = target: T2, Receptor-interacting serine/threonine-protein kinase 4 (Homo sapiens) (UniProt P57078); experiment: Selectivity interaction (KinomeScan (DiscoverX)) EUB0000666a RIPK4; settings: at 10 µM
T2 sequence (whole entry): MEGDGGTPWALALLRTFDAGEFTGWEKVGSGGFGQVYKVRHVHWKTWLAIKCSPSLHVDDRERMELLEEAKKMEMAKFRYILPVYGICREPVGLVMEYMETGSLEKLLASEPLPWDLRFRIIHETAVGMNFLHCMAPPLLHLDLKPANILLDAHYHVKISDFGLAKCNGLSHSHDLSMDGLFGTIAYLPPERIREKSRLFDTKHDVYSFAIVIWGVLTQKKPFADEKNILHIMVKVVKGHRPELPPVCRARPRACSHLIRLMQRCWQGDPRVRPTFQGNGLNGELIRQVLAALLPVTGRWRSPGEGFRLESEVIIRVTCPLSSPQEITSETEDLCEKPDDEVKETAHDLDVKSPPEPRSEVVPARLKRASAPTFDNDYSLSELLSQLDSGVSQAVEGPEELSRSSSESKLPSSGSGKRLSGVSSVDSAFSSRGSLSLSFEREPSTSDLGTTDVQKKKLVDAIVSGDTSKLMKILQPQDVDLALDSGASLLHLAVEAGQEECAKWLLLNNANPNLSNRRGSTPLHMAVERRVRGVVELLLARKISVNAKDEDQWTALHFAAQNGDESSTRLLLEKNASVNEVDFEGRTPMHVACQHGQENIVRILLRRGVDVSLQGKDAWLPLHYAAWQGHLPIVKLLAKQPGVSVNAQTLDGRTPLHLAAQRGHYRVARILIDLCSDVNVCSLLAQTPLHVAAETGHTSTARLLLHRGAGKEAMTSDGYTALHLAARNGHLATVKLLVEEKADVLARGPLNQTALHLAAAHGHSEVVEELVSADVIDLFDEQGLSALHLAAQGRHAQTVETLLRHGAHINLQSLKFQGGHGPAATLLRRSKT

[29] = target: AP2-associated protein kinase 1 (Homo sapiens, UniProt Q2M2I8); experiment: Selectivity interaction (Kinase panel (DSF assay)) EUB0001558a AAK1
Chain of AP2-associated protein kinase 1 (Q2M2I8 whole entry, looked up): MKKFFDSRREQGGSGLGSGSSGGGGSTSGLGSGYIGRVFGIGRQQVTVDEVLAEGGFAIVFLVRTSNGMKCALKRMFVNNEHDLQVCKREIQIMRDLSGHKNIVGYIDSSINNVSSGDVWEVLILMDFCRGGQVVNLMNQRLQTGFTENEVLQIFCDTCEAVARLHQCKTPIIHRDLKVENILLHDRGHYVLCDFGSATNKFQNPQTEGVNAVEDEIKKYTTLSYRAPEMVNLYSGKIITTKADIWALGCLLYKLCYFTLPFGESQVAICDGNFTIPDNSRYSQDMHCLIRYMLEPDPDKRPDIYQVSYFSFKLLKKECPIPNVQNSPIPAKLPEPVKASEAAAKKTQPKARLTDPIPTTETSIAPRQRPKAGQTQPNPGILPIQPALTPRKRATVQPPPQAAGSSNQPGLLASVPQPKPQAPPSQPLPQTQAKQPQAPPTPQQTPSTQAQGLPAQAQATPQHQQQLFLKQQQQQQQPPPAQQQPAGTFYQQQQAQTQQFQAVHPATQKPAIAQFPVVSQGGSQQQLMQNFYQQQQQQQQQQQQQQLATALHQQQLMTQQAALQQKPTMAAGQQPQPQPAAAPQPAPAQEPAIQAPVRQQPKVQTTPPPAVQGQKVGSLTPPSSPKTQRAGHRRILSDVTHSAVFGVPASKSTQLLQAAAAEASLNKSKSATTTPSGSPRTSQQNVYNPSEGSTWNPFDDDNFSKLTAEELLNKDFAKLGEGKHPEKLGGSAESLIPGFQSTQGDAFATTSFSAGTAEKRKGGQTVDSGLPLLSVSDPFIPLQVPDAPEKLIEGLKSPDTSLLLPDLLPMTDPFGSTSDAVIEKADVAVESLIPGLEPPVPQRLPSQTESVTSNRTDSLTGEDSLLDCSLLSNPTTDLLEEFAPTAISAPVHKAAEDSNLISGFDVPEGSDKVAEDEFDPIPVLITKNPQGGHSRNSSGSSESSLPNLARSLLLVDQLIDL

Work on `CN(C)C/C=C/C(=O)Nc1ccc(C(=O)N2CCCC(Nc3ncc(Cl)c(-c4c[nH]c5ccccc45)n3)C2)cc1` (stereo not given) yielded a % of control [1] of 70%.
`CC[C@@H]1[C@H](F)C(=O)N[C@@H]1COc1nccc2cc(C(N)=O)c(OC)cc12` [ZIMLOVISERTIB] gave a % of inhibition [2] of 7.3%.
In the case of `Cn1cc(-n2cnc3c(NCc4nc5cc(Cl)c(Cl)cc5[nH]4)nc(N4CCOCC4)nc32)cn1`, the IC50 [3] is reported as over 10 µM.
`COc1cc(N(C)c2ccnc3ccc(C(F)(F)F)cc23)cc(OC)c1OC` was tested, and the % binding [4] was 72%, the % binding [5] was 79% and the % binding [6] was 95%. For the same compound, the % binding [7] was 100%, the % binding [8] was 94% and the % binding [9] was 100%. The % binding [10] was 95% and the % binding [11] was 84%.
`Nc1cnc(N2CCc3cc(S(=O)(=O)Nc4c(F)cc(Cl)cc4F)cc(N4CCCC4=O)c32)nc1` [TP-020n] showed a % of control [12] of 100%.
`CN(C)CCOc1ccc(-c2nc(-c3ccncc3)c(-c3ccc4c(c3)CC/C4=N\O)[nH]2)cc1` was tested, and the % of control [13] was 8.6%, the % of control [14] was 72% and the % of control [15] was 37%. For the same compound, the % of control [16] was 1.3%, the % of control [17] was 11% and the % of control [18] was 3%. For the same compound, the % of control [19] was 1.6%, the % of control [20] was 9.1% and the % of control [21] was 10%. The % of control [22] was 100%.
With `O[C@H]1CC[C@H](Nc2ncc3nc(Nc4c(F)cc(F)cc4F)n([C@H]4CCOC4)c3n2)CC1` the % of control [23] was 72%.
`CNC(=O)Nc1ccc(-c2nc(N3CC4CCC(C3)O4)c3cnn(C4CCC5(CC4)OCCO5)c3n2)cc1` showed a % of control [24] of 100% and a % of inhibition [25] of 2%.
For `COCCN1CCC(c2cc(CN(C)C(=O)c3cccc(Oc4ccccc4)c3)ccn2)CC1`, the % activity ([26]; at 1 µM) was over 95% and the % activity ([26]; at 10 µM) was over 85%.
Work on `O=C(NOC[C@H](O)CO)c1ccc(F)c(F)c1Nc1ccc(I)cc1F` yielded a % of control [27] of 90% and a % of control [28] of 100%.
In the case of `CC(C)(O)[C@H](F)CN1Cc2cc(NC(=O)c3cnn4cccnc34)c(N3CCOCC3)cc2C1=O`, the dTM [29] is reported as 0.2 K.

— ChEMBL document CHEMBL5465560, “Selectivity Literature for EUbOPEN Chemogenomic Library” (2024)
